Measured values as given in patent US6835378B2, “Method and compositions for inhibiting thrombin-induced coagulation” (The Texas A&M University System University, priority 2001, dated 2004).
“Also recorded” adds a separate entry of the source.

Legend:
[1] = biological target: T1, binding of rSdrG(50-597) to Fg (Staphylococcus epidermidis, UniProt Q9KI13); experiment: ELISA: inhibition of rSdrG(50-597) binding to immobilized Fg by synthetic peptides; design: species or system S. epidermidis; conditions: for inhibition of rSdrG(50-597) binding to Fg: 50 nM rSdrG(50-597) pre-incubated with peptide 1 h
T1 construct: made in house; host or cells: E. coli Topp3
T1 sequence (Q9KI13 50-597): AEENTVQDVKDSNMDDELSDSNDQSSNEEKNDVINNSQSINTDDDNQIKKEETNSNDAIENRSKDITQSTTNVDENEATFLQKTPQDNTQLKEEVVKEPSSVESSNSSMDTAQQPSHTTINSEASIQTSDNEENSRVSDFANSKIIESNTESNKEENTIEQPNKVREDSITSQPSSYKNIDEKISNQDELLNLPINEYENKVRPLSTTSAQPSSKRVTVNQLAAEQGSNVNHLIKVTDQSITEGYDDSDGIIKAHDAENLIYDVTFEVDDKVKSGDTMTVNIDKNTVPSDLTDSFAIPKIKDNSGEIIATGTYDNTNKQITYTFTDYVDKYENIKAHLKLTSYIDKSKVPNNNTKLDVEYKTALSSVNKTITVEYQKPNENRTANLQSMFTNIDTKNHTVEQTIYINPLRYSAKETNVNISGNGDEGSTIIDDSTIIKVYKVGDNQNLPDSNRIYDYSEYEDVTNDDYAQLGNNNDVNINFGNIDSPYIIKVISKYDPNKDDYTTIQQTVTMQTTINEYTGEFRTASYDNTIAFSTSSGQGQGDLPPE
Experimental: ELISA—Microtiter plates (Immulon 4, Dynatech Laboratories Inc.) were coated with 1 μg of Fg (Enzyme Research Labs) in PBS, pH 7.5 for 18 h at 4° C. Plates were washed three times with PBS, 0.05% Tween 20 (PBST) and blocked with 1% (w/v) bovine serum albumin (BSA) for 1 h at room temperature. Plates were washed three times with PBST and rSdrG(50-597), diluted into PBS, was added to the wells and the plate was incubated for 1 h at room temperature. Plates were washed three times with PBST and bound rSdrG(50-597) was detected by adding a 1:2000 dilution of an anti-His-tag mAb (Clontech) in PBST, 0.1% BSA. Plates were incubated for 1 h at room temperature and then washed three times with PBST. A 1:2000 dilution of goat anti-mouse alkaline phosphatase (AP)-conjugated polyclonal antibodies (Bio-Rad) in PBST, 0.1% BSA were added to the wells and the plate was incubated for 1 h at room temperature. Plates were washed three times with PBST and developed with p-nitrophenyl phosphate (Sigma) in 1 M diethanolamine, 0.5 mM MgCl2, pH 9.0 at room temperature for ˜30 min. Plates were read at 405 nm using an ELISA plate reader (Thermomax microplate reader, Molecular Devices).
In the inhibition experiments, 50 nM rSdrG(50-597) in PBS was pre-incubated with the indicated amounts of selected peptides for 1 h at room temperature. The sample mixtures were added to the Fg-coated wells and bound rSdrG(50-597) was detected as described above.

rSdrG(50-597) = rSdrG(50-597) (Staphylococcus epidermidis, UniProt Q9KI13); conditions: increasing amounts of unlabeled peptide
Experimental: Fluorescence Polarization—Fluorescence polarization was used to determine the equilibrium dissociation constant (KD) for the interaction of rSdrG(50-597) with peptide β1-25. The peptide was labeled with fluorescein as previously described (18). Increasing concentrations of rSdrG(50-597) in PBS, pH 7.5, were incubated with 10 nM labeled peptide for 3 h in the dark at room temperature. Reactions were allowed to reach equilibrium. Polarization measurements were taken with a Luminescence Spectrometer LS50B (Perkin Elmer) using FL WinLab software (Perkin Elmer). Binding data was analyzed by nonlinear regression used to fit a binding function as defined by the following equation: [formula]
Determination of Equilibrium Dissociation Constants (KD)—An equilibrium dissociation constant (KD) for the interaction of rSdrG(50-597) with the Fg Bβ chain peptide β1-25 was determined.

[2] = in vivo; cited from earlier work

Substance	inhibition of rSdrG(50-597) binding to Fg [1]	further results
ADSEGEGDFLAEGGGVR (listed as Staphylococcus epidermidis) [FpA]	essentially inactive	–
FSARGHRPLD [β11-20]	essentially inactive	–
FSERKDLHQGEGNPREFVENDAKGR [β1-25S]	did not interfere	inhibition of rSdrG(50-597) binding to fluorescein-labeled β1-25 (rSdrG(50-597)): not
NEEGFFSA RGHRPLD [β6-20]	Effective inhibition; also recorded: potent inhibitor	–
NEEGFFSARGHRPLDKKREE [β6-25]	inhibit the binding of rSdrG(50-597) to Fg in a concentration dependent manner	–
QGVNDNEEGFFSAR [FpB]	inhibited the binding of rSdrG(50-597) in a concentration dependent manner; also recorded: poor inhibitory activity	activity relative to peptide β1-25 (fold less active) ([1]; inhibition ELISA, FIG. 4C): at least 10 fold
QGVNDNEEGFFSARGHRPLDKK REE [β1-25]	inhibit the binding of rSdrG(50-597) to Fg in a concentration dependent manner	inhibition of rSdrG(50-597) binding to fluorescein-labeled β1-25 (rSdrG(50-597)): inhibited binding
heparin	–	major bleeding, patients [2]: 1-33%; thrombocytopenia, patients [2]: 1-5%
